Assay results: patent US9452980B2, “Substituted benzamides” (Hoffmann-La Roche Inc., priority 2009, dated 2016)
Counter-ions that a name gives are not always drawn. Like-named read-outs stand apart in the source and are kept apart here.

Columns and labels:
mouse TAAR1 = mouse TAAR1 (Mus musculus (Mouse), UniProt Q923Y8); test: Radioligand binding assay on mouse TAAR1
Summary of the method: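 Membranes were from HEK293 cells stably expressing mouse TAAR1. Compounds from 10 pM to 10 μM, in duplicate, competed with [3H]-(S)-4-[(ethyl-phenyl-amino)-methyl]-4,5-dihydro-oxazol-2-ylamine for 1 h at 4 °C. Nonspecific binding was defined with 10 μM unlabelled ligand, and bound radioactivity was read by filtration and scintillation.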

rat TAAR1 = rat TAAR1 (Rattus norvegicus (Rat), UniProt Q923Y9); test: Radioligand binding assay on rat TAAR1
Summary of the method: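 Membranes from HEK293 cells stably expressing rat TAAR1, with Kd checked per batch by saturation. Competition with ³H-(S)-4-[(ethyl-phenyl-amino)-methyl]-4,5-dihydro-oxazol-2-ylamine, compounds 10 pM–10 μM in duplicate, 1 hr at 4 °C. Filtration then scintillation counting; nonspecific binding defined with 10 μM unlabeled ligand.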

[1] = rat TAAR1, HEK-293 membranes, second value of cell mouse/rat, read-out: Ki (μM) rat
[2] = mouse TAAR1, HEK-293 membranes, first value of cell mouse/rat, read-out: Ki (μM) mouse

rat TAAR1, sequence (Q923Y9 whole entry): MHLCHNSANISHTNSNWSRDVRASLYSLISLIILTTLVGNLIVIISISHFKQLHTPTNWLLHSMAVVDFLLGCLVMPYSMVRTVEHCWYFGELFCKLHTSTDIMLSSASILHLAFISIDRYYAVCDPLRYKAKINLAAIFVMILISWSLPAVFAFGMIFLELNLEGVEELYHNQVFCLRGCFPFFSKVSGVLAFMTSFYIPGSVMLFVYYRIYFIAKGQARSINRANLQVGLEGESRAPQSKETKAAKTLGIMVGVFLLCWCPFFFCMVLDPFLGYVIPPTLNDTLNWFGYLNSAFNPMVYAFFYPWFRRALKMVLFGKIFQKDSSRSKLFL
mouse TAAR1, sequence (Q923Y8 whole entry): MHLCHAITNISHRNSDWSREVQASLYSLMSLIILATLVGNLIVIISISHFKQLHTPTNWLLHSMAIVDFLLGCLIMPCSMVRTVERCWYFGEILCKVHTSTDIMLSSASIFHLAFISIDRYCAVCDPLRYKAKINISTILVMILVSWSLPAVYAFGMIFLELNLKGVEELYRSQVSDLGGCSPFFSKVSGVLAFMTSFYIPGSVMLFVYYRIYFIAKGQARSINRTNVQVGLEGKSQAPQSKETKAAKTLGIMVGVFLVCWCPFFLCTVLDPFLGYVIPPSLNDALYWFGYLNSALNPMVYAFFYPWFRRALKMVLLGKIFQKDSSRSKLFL

| Compound | Ki (rat TAAR1; [1]) | Ki (mouse TAAR1; [2]) | other results |
| --- | --- | --- | --- |
| CCCc1cnc(C(=O)Nc2ccc([C@@H]3CCCNC3)cc2)cn1 [Example 278, (S)—N-(4-(Piperidin-3-yl)phenyl)-5-propylpyrazine-2-carboxamide hydrochloride] | 0.0118 µM | – | Ki (mouse TAAR1; read-out: Ki (μM) mouse): 0.829 µM |
| C#Cc1ccc(C(=O)Nc2ccc(C3CCNC3)cc2)cc1 (racemic) [Example 54, (RS)-4-Ethynyl-N-(4-pyrrolidin-3-yl-phenyl)-benzamide hydrochloride] | – | 0.0021 µM | Ki (rat TAAR1; read-out: Ki (μM) rat): 0.0152 µM |
| O=C(Nc1ccc(C2CCNC2)cc1)Oc1ccccc1 (racemic) [Example 11, (RS)-(4-Pyrrolidin-3-yl-phenyl)-carbamic acid phenyl ester hydrochloride] | – | – | Ki (mouse TAAR1): 0.0065 µM; Ki (rat TAAR1): 0.0315 µM |
| O=C(Nc1ccc([C@H]2CNCCO2)cc1)c1ccc(Cl)nc1 [Example 208, (S)-6-Chloro-N-(4-(morpholin-2-yl)phenyl)nicotinamide hydrochloride] | – | 0.0762 µM | Ki (rat TAAR1; read-out: Ki (μM) rat): 0.0044 µM |
| O=C(Nc1ccc(C2CCNC2)cc1)Nc1cccc(Cl)c1 (racemic) [Example 8, (RS)-1-(3-Chloro-phenyl)-3-(4-pyrrolidin-3-yl-phenyl)-urea hydrochloride] | 0.0044 µM | 0.0015 µM | – |
| O=C(Nc1ccc(OC2CCNC2)cc1)c1ccc(Cl)cc1 (racemic) [Example 39, (RS)-4-Chloro-N-[4-(pyrrolidin-3-yloxy)-phenyl]-benzamide hydrochloride] | 0.0139 µM | 0.0007 µM | – |
| O=C(Nc1ccc(C2CCNC2)cc1)OC(c1ccc(Cl)cc1)C(F)(F)F (racemic) [Example 130, (RS)-(4-Pyrrolidin-3-yl-phenyl)-carbamic acid (RS)-1-(4-chloro-phenyl)-2,2,2-trifluoro-ethyl ester] | 0.0169 µM | 0.0017 µM | – |
| O=C(Nc1ccc(C2CCCNC2)cc1)Nc1ccc(Cl)nc1 (racemic) [Example 79, (RS)-1-(6-Chloro-pyridin-3-yl)-3-(4-piperidin-3-yl-phenyl)-urea hydrochloride] | 0.0924 µM | 0.0075 µM | – |
| CCOc1ccc(C(=O)Nc2ccc([C@H]3CNCCO3)cc2)cc1 [Example 276, (S)-4-Ethoxy-N-(4-(morpholin-2-yl)phenyl)benzamide hydrochloride] | – | 0.0558 µM | Ki (rat TAAR1; read-out: Ki (μM) rat): 0.0008 µM |
| O=C(Nc1ccc(C2CCNC2)cc1)c1ccc(Cl)cc1 (racemic) [Example 16, (RS)-4-Chloro-N-(4-pyrrolidin-3-yl-phenyl)-benzamide hydrochloride] | 0.0043 µM | 0.0007 µM | – |
| O=C(Nc1ccc(C2CNCCO2)cc1)c1cnc(Cl)c(Cl)c1 (racemic) [Example 219, (RS)-5,6-Dichloro-N-(4-(morpholin-2-yl)phenyl)nicotinamide hydrochloride] | 0.0031 µM | 0.0059 µM | – |
| O=C(Nc1ccc(CCC2CCCCN2)cc1)c1ccc(Cl)cc1 (racemic) [Example 169, (RS)-4-Chloro-N-(4-(2-(piperidin-2-yl)ethyl)phenyl)benzamide hydrochloride] | 0.0027 µM | 0.0607 µM | – |
| Cc1cc(C(=O)Nc2ccc(C3CNCCO3)cc2)cc(Cl)n1 (racemic) [Example 273, (RS)-2-Chloro-6-methyl-N-(4-(morpholin-2-yl)phenyl)isonicotinamide hydrochloride] | 0.008 µM | – | Ki (mouse TAAR1; read-out: Ki (μM) mouse): 0.0343 µM |
| O=C(Nc1ccc([C@H]2CNCCO2)cc1)c1cc(Cl)nc(Cl)c1 [Example 271, (S)-2,6-Dichloro-N-(4-(morpholin-2-yl)phenyl)isonicotinamide hydrochloride] | – | – | Ki (mouse TAAR1; read-out: Ki (μM) mouse): 0.0067 µM; Ki (rat TAAR1; read-out: Ki (μM) rat): 0.004 µM |
| O=C(Nc1ccc([C@@H]2CCCNC2)cc1)c1cnc(Cl)cn1 [Example 238, 5-Chloro-pyrazine-2-carboxylic acid ((S)-4-piperidin-3-yl-phenyl)-amide hydrochloride] | 0.0056 µM | – | Ki (mouse TAAR1; read-out: Ki (μM) mouse): 1.12 µM |
| O=C(Nc1ccc(C2CNCCO2)cc1)c1csc(-c2cnccn2)n1 (racemic) [Example 288, (RS)—N-(4-(Morpholin-2-yl)phenyl)-2-(pyrazin-2-yl)thiazole-4-carboxamide hydrochloride] | 0.0075 µM | – | Ki (mouse TAAR1; read-out: Ki (μM) mouse): 0.0278 µM |
| COc1ccc(C(=O)Nc2ccc([C@@H]3CCCNC3)cc2)cc1Cl [Example 203, (S)-3-Chloro-4-methoxy-N-(4-(piperidin-3-yl)phenyl)benzamide hydrochloride] | – | – | Ki (mouse TAAR1; read-out: Ki (μM) mouse): 0.0603 µM; Ki (rat TAAR1; read-out: Ki (μM) rat): 0.0014 µM |
| Cc1cccc(NC(=O)Nc2ccc(C3CNCCO3)cc2)c1 (racemic) [Example 304, (RS)-1-(4-(Morpholin-2-yl)phenyl)-3-m-tolylurea hydrochloride] | 0.0012 µM | 0.0071 µM | – |
| O=C(Nc1ccc(Cl)cc1)Nc1ccc(C2CCNC2)cc1 (racemic) [Example 5, (RS)-1-(4-Chloro-phenyl)-3-(4-pyrrolidin-3-yl-phenyl)-urea hydrochloride] | 0.0027 µM | 0.0015 µM | – |

More lines, main results first:

| Ki (rat TAAR1; [1]) | Ki (mouse TAAR1; [2]) | Compound | other results |
| --- | --- | --- | --- |
| 0.0022 µM | 0.113 µM | COc1cc(C(=O)Nc2ccc([C@@H]3CCCNC3)cc2)ccc1Cl [Example 201, (S)-4-Chloro-3-methoxy-N-(4-(piperidin-3-yl)phenyl)benzamide hydrochloride] | – |
| 0.009 µM | 1.35 µM | O=C(NCc1ccc([C@@H]2CNCCO2)cc1)c1ccc(Cl)nc1 [Example 315, (R)-6-Chloro-N-(4-(morpholin-2-yl)benzyl)nicotinamide hydrochloride] | – |
| 0.0007 µM | 0.142 µM | O=C(Nc1ccc(CCC2CCCN2)cc1)c1cccc(Cl)c1 (racemic) [Example 157, (RS)-3-Chloro-N-[4-(2-pyrrolidin-2-yl-ethyl)-phenyl]-benzamide] | – |
| 0.0024 µM | 0.0435 µM | CC(CO)(CCl)COc1ccc(C(=O)Nc2ccc(C3CNCCO3)cc2)cc1 (racemic) [Example 220, (RS)-4-(2-Chloromethyl-3-hydroxy-2-methyl-propoxy)-N-(4-morpholin-2-yl-phenyl)-benzamide] | – |
| 0.0067 µM | 0.114 µM | C#Cc1ccc(C(=O)Nc2ccc(CCC3CCCCN3)cc2)cc1 (racemic) [Example 177, (RS)-4-Ethynyl-N-(4-(2-(piperidin-2-yl)ethyl)phenyl)benzamide hydrochloride] | – |
| 0.0062 µM | 2.12 µM | Cc1ccc(C(=O)Nc2ccc([C@@H]3CCCNC3)cc2)cn1 [Example 243, (S)-6-Methyl-N-(4-(piperidin-3-yl)phenyl)nicotinamide hydrochloride] | – |
| 0.0894 µM | 0.0108 µM | O=C(Cc1ccc(Cl)cc1)Nc1ccc(C2CCCNC2)cc1 (racemic) [Example 102, (RS)-2-(4-Chloro-phenyl)-N-(4-piperidin-3-yl-phenyl)-acetamide hydrochloride] | – |
| 0.0014 µM | 0.0256 µM | O=C(Nc1ccc(N2CCNCC2)cc1)c1ccc(Cl)cc1 [Example 59, 4-Chloro-N-(4-piperazin-1-yl-phenyl)-benzamide hydrochloride] | – |
| 1.77 µM | 0.713 µM | O=C(Nc1ccc(C2CCNC2)cc1)c1ncccc1F (racemic) [Example 82, (RS)-3-Fluoro-pyridine-2-carboxylic acid (4-pyrrolidin-3-yl-phenyl)-amide hydrochloride] | – |
| 0.0363 µM | 0.0083 µM | O=C(Cc1ccc(Cl)cc1)Nc1ccc(C2CCNC2)cc1 (racemic) [Example 17, (RS)-2-(4-Chloro-phenyl)-N-(4-pyrrolidin-3-yl-phenyl)-acetamide hydrochloride] | – |
| 0.352 µM | 0.125 µM | COc1cccc(CC(=O)Nc2ccc(C3CCNC3)cc2)c1 (racemic) [Example 65, (RS)-2-(3-Methoxy-phenyl)-N-(4-pyrrolidin-3-yl-phenyl)-acetamide hydrochloride] | – |
| 0.0036 µM | 0.0013 µM | O=C(Nc1ccc(C2CCNC2)cc1)OCCc1cc(F)ccc1F (racemic) [Example 124, (RS)-(4-Pyrrolidin-3-yl-phenyl)-carbamic acid 2-(2,5-difluoro-phenyl)-ethyl ester] | – |
| 1.43 µM | 0.0248 µM | O=C(Nc1ccc(C2CCCNC2)cc1)c1ncc(F)cc1F (racemic) [Example 106, (RS)-3,5-Difluoro-pyridine-2-carboxylic acid (4-piperidin-3-yl-phenyl)-amide hydrochloride] | – |
| 0.006 µM | 0.0059 µM | O=C(Nc1ccc(C2CCNC2)cc1)c1ccc(OCC(F)(F)F)nc1 (racemic) [Example 89, (RS)—N-(4-Pyrrolidin-3-yl-phenyl)-6-(2,2,2-trifluoro-ethoxy)-nicotinamide hydrochloride] | – |
| 0.0159 µM | 0.437 µM | O=C(Nc1ccc(CCC2CCCCN2)cc1)c1cnc(Cl)cn1 (racemic) [Example 174, (RS)-5-Chloro-N-(4-(2-(piperidin-2-yl)ethyl)phenyl)pyrazine-2-carboxamide hydrochloride] | – |
| 0.0014 µM | 0.214 µM | CSc1ccc(C(=O)Nc2ccc([C@@H]3CCCNC3)cc2)cc1 [Example 236, (S)-4-(Methylthio)-N-(4-(piperidin-3-yl)phenyl)benzamide hydrochloride] | – |
| 0.0004 µM | 0.0126 µM | O=C(Nc1ccc(CCC2CCCN2)cc1)c1ccc(Cl)cc1 (racemic) [Example 142, (RS)-4-Chloro-N-[4-(2-pyrrolidin-2-yl-ethyl)-phenyl]-benzamide hydrochloride] | – |
| 0.0022 µM | 0.0135 µM | Cc1ccc(C(=O)Nc2ccc([C@@H]3CNCCO3)cc2)cc1 [Example 195, (R)-4-Methyl-N-(4-(morpholin-2-yl)phenyl)benzamide hydrochloride] | – |
